Consider 24 compounds from patent publication US20230303569A1, “HETEROCYCLIC COMPOUNDS AS THERAPEUTIC AGENTS” (Arisan Therapeutics Inc., priority 2021, published 2023).

Molecules are shown by their SMILES. Like-named read-outs stand apart in the source and are kept apart here.

The target in the test is T1, human Nav1.6 (Homo sapiens, UniProt Q9UQD0).
T1 construct: host or cells: HEK293
Briefly: Two pulse assay protocol, Nav1.6. It is filed as cell-based. The settings on record: peak current. As for the experimental part: In vitro Na+ Current Inhibition Assays were performed by Eurofins Discovery (St Charles, MO). All compound functional activity determinations were determined through electrophysiological analyses of Na+ currents in HEK293 cells expressing a stably transfected Na+ channel (human Nav1.1, 1.2, 1.3, 1.5, 1.6, 1.7, or 1.8). After harvesting with Accutase cells are maintained in serum free medium at room temperature prior to electrophysiological recording utilizing the QPatch HT automated whole-cell patch-clamp platform (Sophion Bioscience, Woburn MA). Stock solution aliquots of the test compound are prepared in DMSO at 300× the final assay concentrations, and stored at −20° C. until the day of assay. On the day of the assay, an aliquot of the stock solution is thawed and diluted into external solution (137 mM NaCl, 4 mM KCl, 1 mM MgCl2, 1.8 mM CaCl2, 10 mM HEPES, 10 mM Glucose (pH 7.3, titrated with 10M NaOH) to make final test concentrations. A final concentration of 0.33% DMSO is maintained for each concentration of the assay compounds. Internal solution for recordings of Na+ consist consists of 100 mM CsF, 45 mM CsCl, 5 mM NaCl, 10 mM HEPES, 5 mM EGTA (pH 7.3, titrated with 1M CsOH).
Two pulse assay protocol for human Nav1.1, 1.2, 1.3, 1.5, 1.6, 1.7, and 1.8 channels. Mammalian cultured cells expressing the indicated human Nav1.1, 1.2, 1.3, 1.5, 1.6, 1.7 or 1.8 channels were assayed using the The QPatch HT (Sophion Bioscience, Woburn MA) automated system with an intracellular solution (mM) of 100 CsF, 45 CsCl, 5 NaCl, 10 HEPES, 5 EGTA (pH 7.3, titrated with 1M CsOH) and extracellular solution (mM) of 137 NaCl, 4 KCl, 1 MgCl2, 1.8 CaCl2, 10 HEPES, 10 Glucose (pH 7.3, titrated with 10M NaOH). Onset and steady state block of the sodium channel was measured using a pulse pattern, repeated every 20 seconds (s) from a holding potential of −120 mV for 100 ms, and then pulsed to 0 mV for 500 ms to inactivate the Na channels and facilitate inactivated state-dependent binding of the test compounds. The cell membranes were then stepped back to −120 mV for 10 ms to recover from inactivation into resting or closed state (channels with test compound bound to them will not recover from inactivation and will not open) before stepping to 0 mV for 50 ms (pulse 2) to measure Na channels that are available to open. Peak current was measured during the step to 0 mV at pulse 1 and 2 to measure tonic and state-dependent inhibition. Compound activities were assessed by dividing post current amplitude (at the end of each five (5) minute compound application) by the vehicle control amplitude and the mean calculated for each compound concentration. Tetracaine was used as a positive control and was tested concurrently with the test compounds. Current amplitudes in excess of 200 pA at the control stage were analyzed. The amplitude of the current was calculated by measuring the difference between the peak inward current on stepping to 0 mV (i.e. peak of the current) and remaining current at the end of the step. The current was assessed in vehicle control conditions and then at the end of each five (5) minute compound application.

Where [1] appears, read: pulse 1 (tonic), read-out: percent inhibition hNav1.6, Pulse 1 (5 uM).
The mark [2] stands for this setting: pulse 2 (state-dependent), read-out: percent inhibition hNav1.6, Pulse 2 (5 uM).

T1 sequence (Q9UQD0 whole entry): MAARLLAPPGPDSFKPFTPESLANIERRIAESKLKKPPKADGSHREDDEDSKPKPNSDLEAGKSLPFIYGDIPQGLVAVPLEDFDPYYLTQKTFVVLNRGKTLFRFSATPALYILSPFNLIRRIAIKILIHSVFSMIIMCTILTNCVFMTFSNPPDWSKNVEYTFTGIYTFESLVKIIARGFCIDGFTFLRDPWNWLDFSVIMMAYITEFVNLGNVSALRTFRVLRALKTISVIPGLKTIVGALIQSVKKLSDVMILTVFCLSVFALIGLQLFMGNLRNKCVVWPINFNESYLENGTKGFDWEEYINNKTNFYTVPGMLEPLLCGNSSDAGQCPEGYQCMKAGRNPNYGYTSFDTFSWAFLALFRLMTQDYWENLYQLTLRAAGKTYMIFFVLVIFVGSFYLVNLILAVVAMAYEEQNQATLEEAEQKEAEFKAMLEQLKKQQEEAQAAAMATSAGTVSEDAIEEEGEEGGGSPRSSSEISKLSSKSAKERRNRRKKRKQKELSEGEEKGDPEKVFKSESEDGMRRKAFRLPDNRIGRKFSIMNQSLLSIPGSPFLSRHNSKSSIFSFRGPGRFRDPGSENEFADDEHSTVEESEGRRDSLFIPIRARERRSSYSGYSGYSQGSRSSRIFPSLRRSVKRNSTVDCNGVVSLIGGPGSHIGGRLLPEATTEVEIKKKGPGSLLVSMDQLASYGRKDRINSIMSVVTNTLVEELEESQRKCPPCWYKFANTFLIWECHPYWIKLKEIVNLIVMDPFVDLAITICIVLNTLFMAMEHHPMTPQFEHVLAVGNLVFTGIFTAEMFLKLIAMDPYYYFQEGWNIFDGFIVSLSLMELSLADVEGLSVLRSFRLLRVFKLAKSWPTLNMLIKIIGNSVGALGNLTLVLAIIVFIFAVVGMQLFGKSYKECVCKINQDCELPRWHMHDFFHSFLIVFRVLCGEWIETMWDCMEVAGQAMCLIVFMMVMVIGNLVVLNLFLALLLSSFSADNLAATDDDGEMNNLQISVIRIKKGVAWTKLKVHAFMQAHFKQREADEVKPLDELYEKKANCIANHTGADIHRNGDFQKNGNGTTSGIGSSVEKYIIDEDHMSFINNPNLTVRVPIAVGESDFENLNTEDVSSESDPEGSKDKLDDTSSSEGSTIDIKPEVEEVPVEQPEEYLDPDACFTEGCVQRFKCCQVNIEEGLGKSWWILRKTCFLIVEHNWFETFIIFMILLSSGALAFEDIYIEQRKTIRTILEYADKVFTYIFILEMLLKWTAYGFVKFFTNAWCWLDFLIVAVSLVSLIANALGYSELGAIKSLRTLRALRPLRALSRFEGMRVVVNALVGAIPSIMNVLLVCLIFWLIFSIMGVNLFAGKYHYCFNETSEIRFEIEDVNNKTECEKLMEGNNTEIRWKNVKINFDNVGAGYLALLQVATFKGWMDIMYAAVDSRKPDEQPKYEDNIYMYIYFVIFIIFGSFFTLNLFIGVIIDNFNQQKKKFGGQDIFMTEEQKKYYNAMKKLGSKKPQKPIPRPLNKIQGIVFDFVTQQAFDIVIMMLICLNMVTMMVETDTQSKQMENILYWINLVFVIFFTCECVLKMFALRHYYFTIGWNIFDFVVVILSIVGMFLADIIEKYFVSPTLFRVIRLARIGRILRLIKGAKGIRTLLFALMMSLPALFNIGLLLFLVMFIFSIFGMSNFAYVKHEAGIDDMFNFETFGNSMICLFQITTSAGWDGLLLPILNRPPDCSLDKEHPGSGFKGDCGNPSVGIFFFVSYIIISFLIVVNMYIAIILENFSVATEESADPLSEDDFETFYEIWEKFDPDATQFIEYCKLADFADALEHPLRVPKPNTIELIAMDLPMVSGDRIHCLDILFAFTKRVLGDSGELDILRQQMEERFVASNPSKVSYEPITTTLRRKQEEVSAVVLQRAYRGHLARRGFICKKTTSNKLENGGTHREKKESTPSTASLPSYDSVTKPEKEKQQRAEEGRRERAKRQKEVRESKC

For `CC(C)Oc1ccc(-c2ccc3ncc(-c4ccc(Oc5ccccc5)nc4)n3c2)cc1` [Example C88, 6-(4-isopropoxyphenyl)-3-(6-phenoxypyridin-3-yl)imidazo[1,2-a]pyridine], the inhibition at 5 µM under setting [1] is under 50% and the inhibition at 5 µM under setting [2] is over 90%.

On to `CC(C)(C)Oc1ccc(-c2cnc3ccc(-c4cnc(OCC(F)(F)F)c(F)c4)cn23)cc1` [Example C86, 3-(4-(tert-butoxy)phenyl)-6-(5-fluoro-6-(2,2,2-trifluoroethoxy)pyridin-3-yl)imidazo[1,2-a]pyridine], for which the inhibition at 5 µM by setting is: under setting [1], under 50%; under setting [2], over 90%.

With `CC(C)Oc1ccc(-c2ccc3ncc(-c4cnc(OC(C)C)nc4)n3c2)cc1` [Example C75, 6-(4-isopropoxyphenyl)-3-(2-isopropoxypyrimidin-5-yl)imidazo[1,2-a]pyridine], the inhibition at 5 µM under setting [1] is under 50% and the inhibition at 5 µM under setting [2] lay within 50 to 90%.

For the compound `Cc1cc2ncc(-c3ccc(OC(C)(C)C)cc3)n2nc1-c1ccc(OC(C)C)cc1` [Example D23, 3-(4-(tert-butoxy)phenyl)-6-(4-isopropoxyphenyl)-7-methylimidazo[1,2-b]pyridazine], the inhibition at 5 µM reads like this: under setting [1], under 50%; under setting [2], 50 to 90%.

As to `Cc1c(-c2ccc(OC(C)C)cc2)ccc2ncc(-c3ccc(OC(C)C)cc3)n12` [Example C51, 5-methyl-3,6-bis[4-(propan-2-yloxy)phenyl]imidazo[1,2-a]pyridine], the inhibition at 5 µM reads like this: under setting [1], under 50%; under setting [2], under 50%.

Turning to `Cc1cc2ncc(-c3ccc(OC(C)(C)C)nc3)n2cc1-c1ccc(OC(C)C)cc1` [Example C84, 3-(6-(tert-butoxy)pyridin-3-yl)-6-(4-isopropoxyphenyl)-7-methylimidazo[1,2-a]pyridine], the inhibition at 5 µM runs as follows: under setting [1], under 50%; under setting [2], 50 to 90%.

In the case of `CC(C)Oc1ccc(-c2cn3c(-c4ccc(OC(C)(C)C)cc4)cnc3cc2Cl)cc1` [Example C91, 3-(4-(tert-butoxy)phenyl)-7-chloro-6-(4-isopropoxyphenyl)imidazo[1,2-a]pyridine], the inhibition at 2.5 µM by setting is: (pulse 1 (tonic), read-out: percent inhibition hNav1.6, Pulse 1 (2.5 uM)) under 50%; (pulse 2 (state-dependent), read-out: percent inhibition hNav1.6, Pulse 2 (2.5 uM)) under 50%.

Turning to `Cc1cc2ncc(-c3ccc(OC(C)(C)C)cc3)n2cc1-c1ccc(OC(C)C)c(F)c1` [Example C79, 3-(4-(tert-butoxy)phenyl)-6-(3-fluoro-4-isopropoxyphenyl)-7-methylimidazo[1,2-a]pyridine], the inhibition at 5 µM under setting [1] was under 50% and the inhibition at 5 µM under setting [2] was in the range of 50 to 90%.

As to `Cc1cc(-c2ccc(OC(C)C)cc2)cn2c(-c3ccc(OC(C)C)cc3)cnc12` [Example C50, 8-methyl-3,6-bis[4-(propan-2-yloxy)phenyl]imidazo[1,2-a]pyridine], the inhibition at 5 µM under setting [1] was under 50% and the inhibition at 5 µM under setting [2] was under 50%.

Turning to `CC(C)Oc1ccc(-c2ccc3ncc(-c4cncc(OC(C)C)c4)n3c2)cc1` [Example C77, 6-(4-isopropoxyphenyl)-3-(5-isopropoxypyridin-3-yl)imidazo[1,2-a]pyridine], the inhibition at 5 µM under setting [1] was under 50% and the inhibition at 5 µM under setting [2] lay in the range of 50 to 90%.

With `Cc1cc(OC(C)C)ccc1-c1ccc2ncc(-c3ccc(OC(C)C)cc3)n2c1` [Example C18, 6-[2-methyl-4-(propan-2-yloxy)phenyl]-3-[4-(propan-2-yloxy)phenyl]imidazo[1,2-a]pyridine], the inhibition at 5 µM was under 50% under setting [1] and 50 to 90% under setting [2].

With `CC(C)Oc1ccc(-c2cnc3ccc(-c4ccc(OC(C)(C)C)cc4)cn23)cc1` [Example C21, 6-[4-(tert-butoxy)phenyl]-3-[4-(propan-2-yloxy)phenyl]imidazo[1,2-a]pyridine], the inhibition at 5 µM under setting [1] was under 50% and the inhibition at 5 µM under setting [2] was over 90%.

For `CC(C)Oc1ccc(-c2cnc3ccc(-c4ccc(OC(C)C)cc4F)cn23)cc1` [Example C23, 6-[2-fluoro-4-(propan-2-yloxy)phenyl]-3-[4-(propan-2-yloxy)phenyl]imidazo[1,2-a]pyridine], the inhibition at 5 µM was under 50% under setting [1] and under 50% under setting [2].

For the compound `CC(C)Oc1ccc(-c2ccc3ncc(-c4ccnc(OC(C)C)c4)n3c2)cc1` [Example C76, 6-(4-isopropoxyphenyl)-3-(2-isopropoxypyridin-4-yl)imidazo[1,2-a]pyridine], the inhibition at 5 µM by setting is: under setting [1], under 50%; under setting [2], over 90%.

For the compound `CC(C)(C)Oc1ccc(-c2ccc3ncc(-c4ccc(OC(C)(C)C)cc4)n3c2)cc1` [Example C82, 3,6-bis(4-(tert-butoxy)phenyl)imidazo[1,2-a]pyridine], the inhibition at 5 µM is under 50% under setting [1] and over 90% under setting [2].

`Cc1cc2ncc(-c3ccc(OC(C)(C)C)cc3)n2cc1-c1ccc(OC(C)C)nc1` [Example C78, 3-(4-(tert-butoxy)phenyl)-6-(6-isopropoxypyridin-3-yl)-7-methylimidazo[1,2-a]pyridine]: the inhibition at 5 µM runs as follows: under setting [1], under 50%; under setting [2], over 90%.

Regarding `Cc1cc2ncc(-c3ccc(OC(C)(C)C)nc3)n2cc1-c1ccc(OC(C)C)c(F)c1` [Example C85, 3-(6-(tert-butoxy)pyridin-3-yl)-6-(3-fluoro-4-isopropoxyphenyl)-7-methylimidazo[1,2-a]pyridine], the inhibition at 5 µM is, setting by setting: under setting [1], under 50%; under setting [2], 50 to 90%.

In the case of `Cc1cc2ncc(-c3ccc(OC(C)C)cc3)n2cc1-c1ccc(OC(C)C)cc1` [Example C48, 7-methyl-3,6-bis[4-(propan-2-yloxy)phenyl]imidazo[1,2-a]pyridine], the inhibition at 5 µM under setting [1] was under 50% and the inhibition at 5 µM under setting [2] lay within 50 to 90%.

In the case of `CC(C)Oc1ccc(-c2ccc3ncc(-c4ccc(OC(C)C)cc4)n3c2)cc1` [Example C2, 3,6-bis[4-(propan-2-yloxy)phenyl]imidazo[1,2-a]pyridine], the inhibition at 5 µM by setting is: under setting [1], under 50%; under setting [2], over 90%.

`CC(C)Oc1ccc(-c2ccc3ncc(-c4ccc(OC(C)(C)C)cc4)n3c2)cn1` [Example C83, 3-(4-(tert-butoxy)phenyl)-6-(6-isopropoxypyridin-3-yl)imidazo[1,2-a]pyridine]: the inhibition at 5 µM is, setting by setting: under setting [1], under 50%; under setting [2], 50 to 90%.

For `CC(C)Oc1ccc(-c2ccc3ncc(-c4ccc(OC(C)(C)C)cc4)n3c2)cc1F` [Example C81, 3-(4-(tert-butoxy)phenyl)-6-(3-fluoro-4-isopropoxyphenyl)imidazo[1,2-a] pyridine], the inhibition at 5 µM is under 50% under setting [1] and over 90% under setting [2].

Turning to `Cc1cc2ncc(-c3ccc(OC(C)C)cc3)n2cc1-c1ccc(OC(C)C)c(F)c1` [Example C80, 6-(3-fluoro-4-isopropoxyphenyl)-3-(4-isopropoxyphenyl)-7-methylimidazo[1,2-a]pyridine], the inhibition at 5 µM is, setting by setting: under setting [1], under 50%; under setting [2], under 50%.

With `CC(C)Oc1ccc(-c2ccc3ncc(-c4ccc(OC(C)C)cc4)n3n2)cc1` [Example D10, 3,6-bis[4-(propan-2-yloxy)phenyl]imidazo[1,2-b]pyridazine], the inhibition at 5 µM is under 50% under setting [1] and over 90% under setting [2].

On to `CC(C)Oc1ccc(-c2ccc3ncc(-c4ccc(OC(C)C)nc4F)n3c2)cc1` [Example C74, 3-(2-fluoro-6-isopropoxypyridin-3-yl)-6-(4-isopropoxyphenyl)imidazo[1,2-a]pyridine], for which the inhibition at 5 µM by setting is: under setting [1], under 50%; under setting [2], 50 to 90%.
